From PubChem BioAssay (NCI)
Several values for one entry are separate records, joined by “and”; a condition that tells them apart may be missing. Identical values can stand only once.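 Step 1: Grow cells in 96-well plates. Step 2: Expose to compound for 48 hours at 5 concentrations. Step 3: Interpolate endpoints linearly; if unreached, use highest concentration. GI50 = concentration required for 50% inhibition of growth. TGI denotes the concentration required for complete inhibition of growth.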

What follows are compounds tested on MDA-MB-468 breast (assay: NCI tumour cell line growth inhibition, 48 h).
In the case of `COc1ccc(-c2cnnc3c(-c4cccc(C(F)(F)F)c4)cnn23)cc1`, the GI50 is reported as 5390 nM and the TGI is reported as > 100000 nM. For `O=C(N/N=C/c1ccccc1O)c1ccccc1Nc1ccnc(C(F)(F)F)c1`, the GI50 was 272 nM and the TGI was 9140 nM. With `COc1cc2c(c(O)c1Br)C(=O)c1c(O)cc(C[C@H](C)O)cc1[C@H]2[C@H]1c2cc(C[C@H](C)O)cc(O)c2C(=O)c2c1cc(OC)c(Br)c2O` the GI50 was 13300 nM and 16500 nM and the TGI was 36000 nM and 41900 nM. For `O=c1[nH]ncc(Br)c1Br`, the GI50 was 1270 nM and the TGI was 3210 nM. `Cc1ccc(NC(=O)c2cccc(N(C)C)c2)cc1NC(=O)c1ccc(O)cc1` was tested, and the GI50 was > 57200 nM and the TGI was > 100000 nM. For `C=C1C(=O)O[C@H]2[C@H]1CC/C(Cn1cc(-c3ccc(OC)cc3)nn1)=C\CC[C@@]1(C)O[C@@H]21`, the GI50 was 892 nM and the TGI was 2560 nM. `NC(=O)c1ccc(I)c(N)c1` was tested, and the GI50 was > 100000 nM and the TGI was > 100000 nM. `N#Cc1c(-c2ccc(F)cc2)nc(N/N=C/c2c[nH]c3ccccc23)nc1N1CCOCC1` showed a GI50 of 3460 nM and a TGI of 22700 nM. For `C=CCCCCCCCCC(=O)[O][Sn]([CH2]CCC)([CH2]CCC)[CH2]CCC`, the GI50 was 135 nM and the TGI was 278 nM. `Oc1ccc2ccccc2c1N=Nc1nccs1` showed a GI50 of 1640 nM and a TGI of 6160 nM. For `CC1(C)OC2[C@@H](CNC(=O)NC(=O)NC(=O)CI)O[C@@H](n3cnc4c(NC(=O)Nc5ccccc5)ncnc43)[C@H]2O1` (stereo not given in full), the GI50 was 6780 nM and the TGI was 14800 nM. `C[C@@H]1OC(O)[C@@H](F)[C@H](O)[C@@H]1O` (stereo not given in full) was tested, and the GI50 was > 100000 nM and the TGI was > 100000 nM. `FC(F)(F)c1cccc(Nc2nccc(-c3cnn4nc(-c5ccccc5)ccc34)n2)c1` was tested, and the GI50 was 7420 nM and the TGI was > 23500 nM. `O=C1CCCCN1CCCCC#Cc1ccccc1C#Cc1ccc([N+](=O)[O-])cc1` gave a GI50 of 4580 nM and a TGI of 26100 nM. `CCCn1cnc2c(SCc3ccccc3Cl)nc(N)nc21` was tested, and the GI50 was 13400 nM and the TGI was 48400 nM. `O=C1Nc2c(C(F)(F)F)cccc2[C@]1(c1ccc(O)cc1)c1ccc(OC(F)(F)F)cc1` was tested, and the GI50 was 6480 nM and the TGI was 21400 nM. With `Oc1ccc(NCc2nc3ccccc3[nH]2)cc1` the GI50 was 88400 nM and the TGI was > 100000 nM. `C=CC(=O)N1CC2(CCN(c3nc(OC4CCN(CCCOC)CC4)nc4c(OCC(F)(F)F)c(-c5c(C)ccc6[nH]ncc56)c(C5CC5)cc34)CC2)C1` gave a GI50 of 1590 nM and a TGI of 3290 nM. In the case of `COc1cc(C2NC(=O)c3ccccc3N2)ccc1OCCCCCOc1c(OC)cc(C2=NOC(c3cc(OC)c(OC)c(OC)c3)C2)cc1OC` (stereo not given), the GI50 is reported as 80.5 nM and the TGI is reported as 97300 nM. With `CC/C(=C(/c1ccc(O)cc1)c1ccc(OCCNC)cc1)c1ccccc1` the GI50 was 1420 nM and the TGI was 2960 nM. `CC[C@]1(O)C[C@@H]2CN(CCc3c([nH]c4ccccc34)[C@@](C(=O)OC)(c3cc4c(cc3OC)N(C)[C@H]3[C@@](O)(C(=O)OC)[C@H](OC(C)=O)[C@]5(CC)C=CCN6CC[C@]43[C@@H]65)C2)C1` was tested, and the GI50 was < 10 nM and the TGI was < 10 nM. `CN1CCN(C(=O)OCc2nc3c(N4CCOCC4)nc(Cl)nc3n2C)CC1` showed a GI50 of 923 nM and a TGI of 2330 nM. `CC1=CC(=Nc2ccc(N(CCCl)CCCl)cc2)C=C(C)C1=O` gave a GI50 of 191 nM and a TGI of 822 nM. For `COC(=O)[C@]12CC[C@@H](C)[C@H](C)[C@@H]1C1=CC[C@@H]3[C@@]4(C)C/C(=N\O)[C@H](O)[C@@]5(C)COC(=C45)C[C@@]3(C)[C@]1(C)CC2`, the GI50 was 6220 nM and the TGI was 20600 nM. Compound `CC(C)(C)OC(=O)N1CCc2c(sc3ncnc(N/N=C/c4cccc5ccccc45)c23)C1` has a GI50 of 4210 nM and a TGI of 28100 nM. `CCOc1cc2c(Cl)ncnc2c(OCC)c1OCC` was tested, and the GI50 was 781 nM and the TGI was 3560 nM. With `OCc1c[nH]c2ccccc12` the GI50 was 25100 nM and the TGI was 75000 nM. In the case of `CC[C@@H]1C(=O)N(C)c2cnc(Nc3ccc(C(=O)NC4CCN(C)CC4)cc3OC)nc2N1C1CCCC1`, the GI50 is reported as 1.35 nM and < 10 nM and the TGI is reported as 16.4 nM and < 18.3 nM. `O=C1c2cc(Cl)ccc2S(=O)(=O)c2c(NCCCNCCO)nc3ccccc3c21` gave a GI50 of 1060 nM and a TGI of 2950 nM. `C=C1C(=O)O[C@H]2[C@H]1CC/C(COC(=O)c1ccc3ccccc3c1)=C\CC[C@@]1(C)O[C@@H]21` was tested, and the GI50 was 784 nM and the TGI was 2610 nM. In the case of `CCN(CC)c1ccc(/C=C/c2ccc3cc(C)ccc3[n+]2CC)cc1`, the GI50 is reported as 20.5 nM and the TGI is reported as 464 nM. `Oc1c(CN2CCC(N3CCCCC3)CC2)cc(Cc2cc(CN3CCC(N4CCCCC4)CC3)c(O)c3ncccc23)c2cccnc12` showed a GI50 of 1150 nM and a TGI of 2880 nM. For `CS(=O)(=O)Nc1cc(-c2ccc3ncc(C#N)c(NCc4cccc(F)c4)c3c2)cnc1Cl`, the GI50 was 102 nM and the TGI was 926 nM. With `N#CSc1c[nH]c2cccc(/C=C/C(=O)/C=C(/C=C/c3cccc4[nH]cc(SC#N)c34)OB(F)F)c12` the GI50 was 300 nM and the TGI was 1190 nM. For `N#Cc1ccc(O)c(C2=NCC(c3cccc(Oc4ccccc4)c3)O2)c1` (stereo not given), the GI50 was 841 nM and the TGI was 7070 nM. Work on `CC(=O)OC[C@]1(C)C=C2C(=O)[C@](C)(O)C3(CC3)C(C)=C2[C@H]1O` yielded a GI50 of 44.7 nM and a TGI of 196 nM. `COc1cc(C2=NOC(c3cc(OC)c(OC)c(OC)c3)C2)ccc1OCCCCOc1cc2c(cc1OC)C(=O)N1CCC[C@H]1C=N2` (stereo not given in full) showed a GI50 of 225 nM and a TGI of 593 nM. Compound `O=C(/C(Br)=C/c1ccccc1)c1ccccc1` has a GI50 of 1120 nM and a TGI of 2560 nM. With `Oc1ccc(CN2CCC(N3CCCCC3)CC2)c2cccnc12` the GI50 was 25200 nM and the TGI was 73900 nM. With `CCN(CC)CCOc1ccc(/C(=C(\Cl)c2ccccc2)c2ccccc2)cc1` the GI50 was 1360 nM and 1570 nM and the TGI was 5970 nM and 3050 nM.
